# Measurements reported in patent publication US8404460B2, “Method for detecting and/or identifying Clostridium difficile” (Biomerieux, priority 2008, dated 2013).
# Experiments:
# Clostridium difficile [1] = test: Example 3: Colombia base media with a chromogenic beta-glucosidase substrate and 300 mg/l ammoniacal iron citrate; format: cell-based; design: key to diffusion of the coloration: *: diffusion of trie coloration; conditions: Clostridium difficile strains, 48 h; for Co = coloration / Gr = growth: Colombia base, 300 mg/l ammoniacal iron citrate
# Clostridium difficile [2] = test: Example 2: egg yolk base media each containing a chromogenic beta-glucosidase substrate, growth and coloration of strains; format: cell-based; conditions: for Co = coloration / Gr = growth: Clostridium difficile strains, 48 h, egg yolk base; for sensitivity with respect to Clostridium difficile: Example 2, 48 h
# Other Clostridium = format: cell-based, Clostridium spp
# [3] = system: C. difficile strains 042, 308, 169, 187; test: Example 4: five CHE-beta-glucoside media with varying esculin and glucose, colony diameter and coloration strength; format: cell-based, Clostridium difficile; conditions: Example 4, according to medium 2
# Experimental: Five media, each containing 48.10 g/l of Columbia base, 2.5 g/l of sodium taurocholate, 200 mg/l of ammoniacal iron citrate, 100 mg/l of CHE-beta-glucoside, and also an inhibitor system normally used in the media for Clostridium difficile, based on D-cycloserine, and varying concentrations of esculin and glucose (see following table):
# (§1) The inoculation is carried out from precultures prepared for 48 h at 37° C. under anaerobic conditions.
# (§2) A suspension in physiological saline at 0.5 McF is prepared and then the strains are inoculated using a 10 μl calibrated loop.
# The readings are carried out after incubation for 24 hours at 37° C.
# For Growth: • The values indicated correspond to the diameter of the colonies.
# For Coloration Strength: • 1 corresponds to the presence of a clear coloration of weak strength, • 1.5 corresponds to the presence of a coloration that is intermediate between colorations 1 and 2, • 2 corresponds to the presence of a clear coloration of medium strength, • 2.5 corresponds to the presence of a coloration that is intermediate between colorations 2 and 3, • 3 corresponds to the presence of a strong coloration.
# Clostridium difficile [4] = test: Example 5: two prototype media for C. difficile, % of strains producing a coloration; format: cell-based
# Experimental: (§3) 107 strains were tested on two prototype media for C. difficile, the compositions of which are the following (per liter):
# as §1, §2
# (§4) The readings are carried out after incubation for 24 and 48 hours at 37° C.
# [5] = system: strains other than Clostridium difficile; test: Example 5: selectivity of the medium, growth of strains other than Clostridium difficile; format: cell-based
# Experimental: as §3, §1, §2, §4
# [6] = substrate 300 mg/l +50 mg of ammoniacal iron citrate
# [7] = substrate 300 mg/l +500 mg/l of ammoniacal iron citrate
compound,measurement,setting,value
"OC[C@H]1O[C@@H](Oc2cccc3cccnc23)[C@H](O)[C@@H](O)[C@@H]1O [8-Hydroxyquinoline-β-glucoside, 8-hydroxyquinoline-β-glucoside]",Co = coloration,Clostridium difficile [1]; substrate 150 mg/l,5/10
same,Gr = growth,Clostridium difficile [1]; substrate 150 mg/l,10/10
dihydroxyflavone-β-glucoside [DHF-β-glucoside],Co = coloration,Clostridium difficile [2]; [6],20/28
same,Gr = growth,Clostridium difficile [2]; [6],28/28
same,Co = coloration,Clostridium difficile [1]; substrate 300 mg/l,10/10
same,Gr = growth,Clostridium difficile [1]; substrate 300 mg/l,10/10
same,Co = coloration,Other Clostridium,3/12
same,Gr = growth,Other Clostridium,12/14
"O=c1ccc2cc(O[C@@H]3O[C@H](CO)[C@@H](O)[C@H](O)[C@H]3O)c(O)cc2o1 [esculin, esculetin-β-glucoside]",effect on the strength of the coloration,[3],positive effect
"O=C1c2ccccc2C(=O)c2c1ccc(O[C@@H]1O[C@H](CO)[C@@H](O)[C@H](O)[C@H]1O)c2O [Alizarin-β-glucoside, 1,2-dihydroxyanthraquinone-β-glucoside]",Co = coloration,Clostridium difficile [2]; substrate 50 mg/l,18/22
same,Gr = growth,Clostridium difficile [2]; substrate 50 mg/l,22/28
same,sensitivity with respect to Clostridium difficile,Clostridium difficile [2],good sensitivity
same,Co = coloration,Clostridium difficile [1]; substrate 50 mg/l,8/10
same,Gr = growth,Clostridium difficile [1]; substrate 50 mg/l,10/10
same,Co = coloration,Other Clostridium,2/16
same,Gr = growth,Other Clostridium,16/17
5-bromo-6-chloro-3-indoxyl-β-glucoside [Magenta-β-glucoside],Co = coloration,Clostridium difficile [2]; substrate 80 mg/l,16/18
same,Gr = growth,Clostridium difficile [2]; substrate 80 mg/l,18/28
same,sensitivity with respect to Clostridium difficile,Clostridium difficile [2],good sensitivity
same,Co = coloration,Other Clostridium,6/17
same,Gr = growth,Other Clostridium,17/17
"O=c1oc2cc(O)c(O[C@@H]3O[C@H](CO)[C@@H](O)[C@H](O)[C@H]3O)cc2c2c1CCCC2 [CHE-β-glucoside, 3,4-cyclohexenoesculetin-β-glucoside]",Co = coloration,Clostridium difficile [2]; [7],20/21
same,Gr = growth,Clostridium difficile [2]; [7],21/28
same,sensitivity with respect to Clostridium difficile,Clostridium difficile [2],good sensitivity
same,sensitivity with respect to Clostridium difficile,"Clostridium difficile [4]; Example 5, from 24 h onward",good sensitivity
same,strains of Clostridium difficile revealed,"Clostridium difficile [4]; from 24 h onward, with a minimum of false positives",~90%
same,specificity with respect to Clostridium difficile,[5],good specificity
same,Co = coloration,Other Clostridium,6/17
same,Gr = growth,Other Clostridium,17/17
5-bromo-3-indoxyl-β-glucoside [Blue-β-glucoside],diffusion of the coloration,Clostridium difficile [1]; Blue substrate 300 mg/l,*
same,Co = coloration,Clostridium difficile [1]; Blue substrate 300 mg/l,10/10
same,Gr = growth,Clostridium difficile [1]; Blue substrate 300 mg/l,10/10
